Legend:
Assay in all cases: TAG hydrolase assay, chimeric ATGL variants
Assay type in all cases: biochemical, human and mouse
[1] = molecular target: T1, Variant c3 containing aa 1–23 of human ATGL (Homo sapiens, UniProt Q96AD5, F69I/F97C/G146T/H109R/I93T/K68N/N133S/S106C/S111N/S158T/S96G/V101T/V60A); details: variant c3, NG-497 (10 μM) or Atglistatin (10 μM)
T1 construct: host or cells: Expi293 cells, cell lysate
Description: (§1) Figure 5 Analysis of chimeric proteins comprising human and mouse ATGL. (a) Schematic view of the minimal active domain of wild-type and chimeric ATGL variants (c1–c9). Nonidentical aa are indicated in blue and red for mouse and human ATGL, respectively. ATGL variants were expressed in Expi293 cells and TAG hydrolase activity was determined in cell lysates in the presence or absence of NG-497 (10 μM) and Atglistatin (10 μM), respectively. Inhibition of ATGL variants by respective inhibitors (tick mark) and lack of inhibition (cross) is indicated at the right edge. The expression of all ATGL variants was confirmed by Western blotting analysis (Figure S6). (b) Dose-dependent inhibition of human ATGL (aa 1–288) and c1 (human aa 1–158 and mouse aa 159–288) by NG-497. (c) Dose-dependent inhibition of mouse ATGL (aa 1–288) and c2 (mouse aa 1–158 and human aa 159–288) by Ai. IC50 values are shown in the insets. Data are presented as relative inhibition of respective DMSO controls and are indicated as mean ± SD. (d) 3D homology model of the minimal active domain of mouse ATGL (M1–L254) depicted as a cartoon. Residues 1–178 are in blue, and residues 179–254 are in gray. S47 and D166 comprising the active site are represented as green sticks. T101, C106, R109, N111, and S133 are colored in orange, A60, N68, I69, T93, C97, and T146 are colored in magenta. TEXT PRINTED IN THE PICTURE: (b) NG-497: IC50 [μM] (human): 1.3±0.1; IC50 [μM] (c1): 1.3±0.1 | (b) Ai: IC50 [μM] (human): n.det.; IC50 [μM] (c1): n.det. | (c) NG-497: IC50 [μM] (mouse): n.det.; IC50 [μM] (c2): n.det. | (c) Ai: IC50 [μM] (mouse): 2.5±0.3; IC50 [μM] (c2): 2.4±0.1 […]
(§2) We next generated variants by further stepwise humanization of c2. Variant c3 containing aa 1–23 of human ATGL was inhibited by Ai but not NG-497 (Figure 5a). […] Finally, variants of mouse ATGL containing aa 1–146 (c7) and 60–146 (c8) of human ATGL were inhibited by NG-497 but not Ai (Figure 5a).
(§3) Experimental details, materials, and methods
(§4) Expression of recombinant ATGL constructs and preparation of cell lysates. Expi293 cells were cultivated in Expi293 Expression Medium (GIBCO, Thermo Fisher Scientific, Waltham, USA) at standard conditions (37°C, 5% CO2, 95% humidified atmosphere, 125 rpm). DNA constructs containing ATGL from different species and chimeric ATGL variants in pcDNA3.1(+)myc-His C Vector were obtained from BioCat GmbH (Heidelberg, Germany). Cells were transfected with ExpiFectamine293 Transfection Kit (GIBCO) in Opti-Mem reduced serum medium (GIBCO) according to the manufacturer’s instructions. After 48 h, cells were harvested by centrifugation and washed three times with PBS. Cells were disrupted in buffer A (0.25 M sucrose, 1 mM EDTA, 1 mM dithiothreitol, 20µg/ml leupeptin, 2 µg/ml antipain, 1 µg/ml pepstatin, pH 7.0) by sonication (Virsonic 475, Virtis, Gardiner, USA). Nuclei and debris were removed by centrifugation at 1,000 g and 4°C for 10 min. Protein concentrations were determined using Bio-Rad protein assay (Bio-Rad 785, Bio-Rad Laboratories, Munich, Germany) using BSA as standard.
(§5) Expression and purification of mouse CGI-58. CGI-58 was expressed and purified as described 1. In brief, the coding sequence of mouse Cgi-58 was cloned into pHis-Sumo and co-transformed with the plasmid pTf16 expressing the chaperone Tig into E. coli BL21(DE3). Cells were cultured overnight at 37°C and 180 rpm in the presence of 40 µg/ml kanamycin and 34 µg/ml chloramphenicol. Thereafter, cells were transferred into fresh LB medium, grown until OD600 of 0.6, and expression was induced by the addition of 0.5 mM IPTG. After overnight incubation at 30°C, cells were harvested at 4,500 x g and 4°C for 20 min, washed in 1x PBS, and resuspended in lysis buffer (20 mM Tris/HCl pH 7.8, 300 mM NaCl, 30 mM imidazole, 0.1% IGEPAL CA-630, 3.5 mM β-mercaptoethanol, 20 µg/ml leupeptin, 2 µg/ml antipain and 1 µg/ml pepstatin). Cells were incubated with 1 […]

[2] = molecular target: T2, c7 (mouse ATGL containing aa 1–146 of human ATGL) (Mus musculus, UniProt Q8BJ56, A60V/C106S/C97F/G96S/H22Y/I23V/I69F/K7T/N111S/N68K/R109H/S133N/T101V/T146G/T6K/T93I); details: variant c7, NG-497 (10 μM) or Atglistatin (10 μM)
T2 construct: host or cells: Expi293 cells, cell lysate
Description: as §1, §2, §3, §4, §5

[3] = test system: c8 (mouse ATGL containing aa 60–146 of human ATGL); details: variant c8, NG-497 (10 μM) or Atglistatin (10 μM)
Description: as §1, §2, §3, §4, §5

T1 sequence (Q96AD5 1-288 V60A/K68N/F69I/I93T/S96G/F97C/V101T/S106C/H109R/S111N/N133S/G146T/S158T): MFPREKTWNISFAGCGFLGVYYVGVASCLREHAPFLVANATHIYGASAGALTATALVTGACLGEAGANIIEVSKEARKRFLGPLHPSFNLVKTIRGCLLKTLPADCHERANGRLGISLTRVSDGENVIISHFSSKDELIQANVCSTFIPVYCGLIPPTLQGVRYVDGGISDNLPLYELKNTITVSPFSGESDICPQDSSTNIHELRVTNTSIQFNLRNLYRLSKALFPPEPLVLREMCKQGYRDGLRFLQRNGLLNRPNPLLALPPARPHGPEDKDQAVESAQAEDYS
T2 sequence (Q8BJ56 1-288 with the stated changes limits assumed): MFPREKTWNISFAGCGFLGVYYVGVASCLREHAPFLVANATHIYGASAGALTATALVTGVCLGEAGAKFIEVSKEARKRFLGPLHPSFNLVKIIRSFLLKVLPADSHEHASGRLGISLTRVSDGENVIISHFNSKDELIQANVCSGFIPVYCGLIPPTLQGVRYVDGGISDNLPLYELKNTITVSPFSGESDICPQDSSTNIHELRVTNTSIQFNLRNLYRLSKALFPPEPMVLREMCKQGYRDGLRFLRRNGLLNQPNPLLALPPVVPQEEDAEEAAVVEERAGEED

Row | Compound | inhibition of TAG hydrolase activity [1] | inhibition of TAG hydrolase activity [2] | inhibition of TAG hydrolase activity [3]
1 | CN(C)C(=O)Nc1cccc(-c2ccc(N(C)C)cc2)c1 [Atglistatin, reference compound] | inhibited | – | –
2 | CCOc1ccc(-c2cc(OC)cc(C(=O)OC(C)C)n2)cc1 [NG-497] | – | inhibited | inhibited
